Test results reported in patent US20140031227A1, “HERBICIDAL COMPOSITIONS COMPRISING 4-AMINO-3-CHLORO-5-FLUORO-6-(4-CHLORO-2-FLUORO-3-METHOXYPHENYL) PYRIDINE-2-CARBOXYLIC ACID OR A DERIVATIVE THEREOF AND GLYPHOSATE OR GLUFOSINATE” (DOW AGROSCIENCES LLC, priority 2012, published 2014).
Counter-ions that a name gives are not always drawn.

Columns and labels:
Assay type in all cases: in vivo
[1] = system: ECHCG (Echinochloa crusgalli (L.) Beauv., barnyardgrass); assay: Example I postemergence foliar-applied mixtures, direct seeded rice weeds, greenhouse: ECHCG
Experimental: (§1) Seeds or nutlets of the desired test plant species were planted in a soil matrix prepared by mixing a loam or sandy loam soil (e.g., 28.6 percent silt, 18.8 percent clay, and 52.6 percent sand, with a pH of about 5.8 and an organic matter content of about 1.8 percent) and calcareous grit in an 80 to 20 ratio. The soil matrix was contained in plastic pots with a volume of 1 quart and a surface area of 83.6 square centimeters (cm^2). […] The plants were grown for 8-22 days in a greenhouse with an approximate 14 hr photoperiod which was maintained at about 29° C. during the day and 26° C. during the night. Nutrients (Peters Excel® 15-5-15 5-Ca 2-Mg and iron chelate) were applied in the irrigation solution as needed and water was added on a regular basis. Supplemental lighting was provided with overhead metal halide 1000-Watt lamps as necessary. The plants were employed for testing when they reached the first through fourth true leaf stage.
(§2) Treatments consisted of the acid or esters of 4-amino-3-chloro-5-fluoro-6-(4-chloro-2-fluoro-3-methoxy-phenyl)pyridine-2-carboxylic acid (Compound A), each formulated as an SC (suspension concentrate), and various herbicidal components alone and in combination. Forms of compound A were applied on an acid equivalent basis.
(§3) For treatments comprised of formulated compounds, measured amounts of compounds were placed individually in 25 mL glass vials and diluted in a volume of 1.25% (v/v) Agri-Dex® crop oil concentrated to obtain 12× stock solutions. […] Application solutions were prepared by adding an appropriate amount of each stock solution (e.g., 1 mL) and diluted to the appropriate final concentrations with the addition of 10 mL of an aqueous mixture of 1.25% (v/v) crop oil concentrate so that the final spray solutions contained 1.25+/−0.05% (v/v) crop oil concentrate.
(§4) All stock solutions and applications solutions were visually inspected for compound compatibility prior to application. Spray solutions were applied to the plant material with an overhead Mandel track sprayer equipped with a 8002E nozzles calibrated to deliver 187 L/ha over an application area of 0.503 m^2 at a spray height of 18 to 20 inches (46 to 50 cm) above average plant canopy height. Control plants were sprayed in the same manner with the solvent blank.
(§5) The treated plants and control plants were placed in a greenhouse as described above and watered by sub-irrigation to prevent wash-off of the test compounds. After approximately 3 weeks, the condition of the test plants as compared with that of the untreated plants was determined visually and scored on a scale of 0 to 100 percent where 0 corresponds to no injury or growth inhibition and 100 corresponds to complete kill.
(§6) Colby's equation was used to determine the herbicidal effects expected from the mixtures (Colby, S. R. 1967. Calculation of the synergistic and antagonistic response of herbicide combinations. Weeds 15:20-22.).

[2] = system: ECHCO (Echinochloa colona (L.) Link, junglerice); assay: Example I postemergence foliar-applied mixtures, direct seeded rice weeds, greenhouse: ECHCO
Experimental: as §1, §2, §3, §4, §5, §6

[3] = system: LEFCH (Leptochloa chinensis (L.) Nees, Chinese sprangletop); assay: Example I postemergence foliar-applied mixtures, direct seeded rice weeds, greenhouse: LEFCH
Experimental: as §1, §2, §3, §4, §5, §6

[4] = system: IPOHE (Ipomoea hederacea Jacq., ivyleaf morningglory); assay: Example I postemergence foliar-applied mixtures, direct seeded rice weeds, greenhouse: IPOHE
Experimental: as §1, §2, §3, §4, §5, §6

[5] = system: DIGSA (Digitaria sanguinalis (L.) Scop., large crabgrass); assay: Example I postemergence foliar-applied mixtures, direct seeded rice weeds, greenhouse: DIGSA
Experimental: as §1, §2, §3, §4, §5, §6

[6] = system: SORHA (Sorghum halepense (L.) Pers., johnsongrass); assay: Example III postemergence foliar-applied mixtures, row crop weeds (corn, soybean), greenhouse: SORHA
Experimental: Seeds or nutlets of the desired test plant species were planted in a soil matrix prepared by mixing a loam or sandy loam soil (e.g., 43 percent silt, 19 percent clay, and 38 percent sand, with a pH of about 8.1 and an organic matter content of about 1.5 percent) and calcareous grit in an 80 to 20 ratio. The soil matrix was contained in plastic pots with a surface area of 84.6 square centimters (cm^2) and a volume of 560 cubic centimeters (cm^3). […] The plants were grown for 7-31 days (d) in a greenhouse with an approximate 15 hour (h) photoperiod which was maintained at about 23-29° C. during the day and 22-28° C. during the night. Nutrients (Peters Excel® 15-5-15 5-Ca 2-Mg) and water were added on a regular basis and supplemental lighting was provided with overhead metal halide 1000-Watt lamps as necessary. The plants were employed for testing when they reached the first, second, or third true leaf stage.
Treatments consisted of the acid or esters of 4-amino-3-chloro-5-fluoro-6-(4-chloro-2-fluoro-3-methoxy-phenyl)pyridine-2-carboxylic acid (Compound A), each formulated as an
SC (suspension concentrate), and various herbicidal components alone and in combination. Forms of compound A were applied on an acid equivalent basis.
Other herbicidal components were applied on an acid equivalent or active ingredient basis and included the 5-enolpyruvylshikimate-3-phosphate synthase (EPSPS)-inhibiting herbicide, glyphosate dimethylamine salt, formulated as Durango DMA® and the glutamine synthase (GS)-inhibiting herbicide, glufosinate ammonium, formulated as Ignite® 280.
For treatments comprised of formulated compounds, measured amounts of compounds were placed individually in 25 mL glass vials and diluted in a volume of 1.5% (v/v) Agri-dex® crop oil concentrate to obtain 6× stock solutions. […] Application solutions were prepared by adding an appropriate amount of each stock solution (typically 2 mL) and diluted to the appropriate final concentrations with the addition of an aqueous mixture of 1.5% (v/v) crop oil concentrate and water so that the final spray solutions contained 1.25% (v/v) crop oil concentrate.
All stock solutions and applications solutions were visually inspected for compound compatibility prior to application. Compound requirements are based upon a 12 mL application volume at a rate of 187 liters per hectare (L/ha). Formulated compounds were applied to the plant material with an overhead Mandel track sprayer equipped with 8002E nozzles calibrated to deliver 187 L/ha over an application area of 0.503 square meters (m^2) at a spray height of 18 to 20 inches (46 to 50 cm) above the average plant canopy height. Control plants were sprayed in the same manner with the solvent blank.
as §5, with “2” for “3”
The following equation was used to calculate the expected activity of mixtures containing two active ingredients, A and B: […]

[7] = Compound A Benzyl Ester alone, 4.38 gae/ha
[8] = Compound A Benzyl Ester alone, 8.75 gae/ha
[9] = Compound A Benzyl Ester alone, 17.5 gae/ha
[10] = Compound A Benzyl Ester alone, 8 gae/ha
[11] = Compound A Benzyl Ester alone, 16 gae/ha
[12] = glufosinate ammonium alone, 135.5 gae/ha
[13] = glufosinate ammonium alone, 271 gae/ha
[14] = Compound A Acid alone, 4.38 gae/ha
[15] = Compound A Acid alone, 8.75 gae/ha
[16] = Compound A Acid alone, 19.4 gae/ha
[17] = Compound A Acid alone, 17.5 gae/ha
[18] = Compound A Acid alone, 3.75 gae/ha

## COc1c(Cl)ccc(-c2nc(C(=O)OCc3ccccc3)c(Cl)c(N)c2F)c1F [Compound A Benzyl Ester]
[1]; [7]
  Visual Weed Control (%) - 21 DAA ECHCG Obs: 10%
[1]; [8]
  Visual Weed Control (%) - 21 DAA ECHCG Obs: 85%
[2]; [7]
  Visual Weed Control (%) - 21 DAA ECHCO Obs: 70%
[2]; [8]
  Visual Weed Control (%) - 21 DAA ECHCO Obs: 75%
[3]; [7]
  Visual Weed Control (%) - 21 DAA LEFCH Obs: 0%
[3]; [8]
  Visual Weed Control (%) - 21 DAA LEFCH Obs: 40%
[3]; [9]
  Visual Weed Control (%) - 21 DAA LEFCH Obs: 45%
[4]; [7]
  Visual Weed Control (%) - 21 DAA IPOHE Obs: 10%
[4]; [10]
  Visual Weed Control (%) - 21 DAA IPOHE Obs: 10%
[4]; [8]
  Visual Weed Control (%) - 21 DAA IPOHE Obs: 10%
[4]; [11]
  Visual Weed Control (%) - 20 DAA IPOHE Obs: 18%
  Visual Weed Control (%) - 21 DAA IPOHE Obs: 10%
[4]; [9]
  Visual Weed Control (%) - 21 DAA IPOHE Obs: 25%
[4]; Compound A Benzyl Ester alone, 32 gae/ha
  Visual Weed Control (%) - 21 DAA IPOHE Obs: 45%
[5]; [10]
  Visual Weed Control (%) - 21 DAA DIGSA Obs: 25%
[5]; [11]
  Visual Weed Control (%) - 20 DAA DIGSA Obs: 18%
  Visual Weed Control (%) - 21 DAA DIGSA Obs: 30%
[6]; Compound A Benzyl Ester alone, 3.75 gae/ha
  Visual Weed Control (%) - 13 DAA SORHA Obs: 0%
[6]; Compound A Benzyl Ester alone, 7.5 gae/ha
  Visual Weed Control (%) - 13 DAA SORHA Obs: 0%
[6]; Compound A Benzyl Ester alone, 15 gae/ha
  Visual Weed Control (%) - 13 DAA SORHA Obs: 10%

## CP(=O)(O)CCC(N)C(=O)O (stereo not drawn) [Glufosinate ammonium salt, 2-amino-4-(hydroxymethylphosphinyl)butanoic acid monoammonium salt, reference compound]
[1]; [12]
  Visual Weed Control (%) - 21 DAA ECHCG Obs: 60%
[1]; [13]
  Visual Weed Control (%) - 21 DAA ECHCG Obs: 10%
[2]; [12]
  Visual Weed Control (%) - 21 DAA ECHCO Obs: 0%
[2]; [13]
  Visual Weed Control (%) - 21 DAA ECHCO Obs: 0%
[3]; [12]
  Visual Weed Control (%) - 21 DAA LEFCH Obs: 0%
[3]; [13]
  Visual Weed Control (%) - 21 DAA LEFCH Obs: 10%
[4]; glufosinate ammonium alone, 112.5 gai/ha
  Visual Weed Control (%) - 21 DAA IPOHE Obs: 10%
[4]; glufosinate ammonium alone, 542 gai/ha
  Visual Weed Control (%) - 20 DAA IPOHE Obs: 50%
[5]; [12]
  Visual Weed Control (%) - 21 DAA DIGSA Obs: 0%
[6]; [13]
  Visual Weed Control (%) - 13 DAA SORHA Obs: 20%
[6]; glufosinate ammonium alone, 542 gae/ha
  Visual Weed Control (%) - 13 DAA SORHA Obs: 25%

## COc1c(Cl)ccc(-c2nc(C(=O)O)c(Cl)c(N)c2F)c1F [Compound A Acid, 4-amino-3-chloro-6-(4-chloro-2-fluoro-3-methoxyphenyl)-5-fluoropyridine-2-carboxylic acid]
[1]; [14]
  Visual Weed Control (%) - 21 DAA ECHCG Obs: 15%
[1]; [15]
  Visual Weed Control (%) - 21 DAA ECHCG Obs: 50%
[2]; Compound A Acid alone, 4.38 gae/ha (Table 2)
  Visual Weed Control (%) - 21 DAA ECHCO Obs: 60%
[2]; Compound A Acid alone, 4.38 gae/ha (Tables 1, 9)
  Visual Weed Control (%) - 21 DAA ECHCO Obs: 70%
[2]; Compound A Acid alone, 8.75 gae/ha (Table 2)
  Visual Weed Control (%) - 21 DAA ECHCO Obs: 90%
[2]; Compound A Acid alone, 8.75 gae/ha (Tables 1, 9)
  Visual Weed Control (%) - 21 DAA ECHCO Obs: 75%
[3]; Compound A Acid alone, 17.5 gae/ha (Table 2)
  Visual Weed Control (%) - 21 DAA LEFCH Obs: 30%
[3]; Compound A Acid alone, 17.5 gae/ha (Tables 1, 9)
  Visual Weed Control (%) - 21 DAA LEFCH Obs: 0%
[3]; [16]
  Visual Weed Control (%) - 20 DAA LEFCH Obs: 5%
[4]; [14]
  Visual Weed Control (%) - 21 DAA IPOHE Obs: 10%
[4]; [15]
  Visual Weed Control (%) - 21 DAA IPOHE Obs: 35%
[4]; [17]
  Visual Weed Control (%) - 21 DAA IPOHE Obs: 45%
[5]; [14]
  Visual Weed Control (%) - 21 DAA DIGSA Obs: 35%
[5]; [15]
  Visual Weed Control (%) - 21 DAA DIGSA Obs: 50%
[5]; [17]
  Visual Weed Control (%) - 21 DAA DIGSA Obs: 40%
[5]; [16]
  Visual Weed Control (%) - 20 DAA DIGSA Obs: 13%
[6]; [18]
  Visual Weed Control (%) - 13 DAA SORHA Obs: 0%
  Visual Weed Control (%) - 16 DAA SORHA Obs: 0%
[6]; Compound A Acid alone, 7.5 gae/ha
  Visual Weed Control (%) - 13 DAA SORHA Obs: 0%
[6]; Compound A Acid alone, 15 gae/ha
  Visual Weed Control (%) - 13 DAA SORHA Obs: 0%
